Patent US20230295145A1, “PYRROLIDINE DERIVATIVES AND METHODS OF USE” (Genentech, Inc., priority 2020, published 2023)
Where two headings read alike, the source gives them in different places.

Legend:
VHL [1] = target: T1, VHL (Homo sapiens, UniProt P40337); assay: VHL HEK-293 BRET Assay (VHL NanoBRET Target Engagement Assay); format: cell-based; conditions: IC50 values measured in the presence of digitonin; HEK 293 RT VHL-NanoLuc stable cells; read-out: IC50 + Digi (μM)*
T1 construct: expressed in transfected cells
T1 sequence (P40337 whole entry): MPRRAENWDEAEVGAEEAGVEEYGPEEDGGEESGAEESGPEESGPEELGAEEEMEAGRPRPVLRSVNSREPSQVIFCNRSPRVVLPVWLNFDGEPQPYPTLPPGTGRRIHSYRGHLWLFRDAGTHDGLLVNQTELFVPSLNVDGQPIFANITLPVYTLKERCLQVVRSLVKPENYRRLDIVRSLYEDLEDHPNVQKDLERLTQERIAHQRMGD

KNS-62 = assay: Cell Viability Assay (CellTiter-Glo); format: cell-based; conditions: 5 days
Method: (§1) Cell lines were cultured in RPMI-1640, 5% fetal bovine serum, and 2 mM glutamine in a humidified incubator maintained at 37° C. with 5% CO2. Cells were assessed with a Vi-CELL Cell Viability Analyzer (Beckman Coulter; Brea, CA); viability of at least 90% was required for screening. A Multidropä Combi Reagent Dispenser (Thermo Scientific; Waltham, MA) was used to plate cells into Falcons^â 384-well, black, clear-bottom plates (Catalog No. 353962; Corning; Tewksbury, MA) using seeding densities previous determined to achieve approximately 80% confluence at the final time point of the assay. The compounds were prepared at 1000× in advance using an Echo 555 liquid handler (Labcyte; Sunnyvale, CA) and stored in −80° C. until the day of compound addition. On the following day, cells were treated with compounds at final assay concentration 1 uM and 10 uM using a Bravo Automated Liquid-Handling Platform (Agilent; Santa Clara, CA). After 5 days, 25 mL CellTiter-Glo^â reagent was added using a MultiFloä Microplate Dispenser (BioTek; Winooski, VT). Cell lysis was induced by mixing for 30 minutes on an orbital shaker; plates were then incubated at room temperature for 10 minutes to stabilize the luminescent signal. Luminescence was read by a 2104 EnVision^â Multilabel Plate Reader (PerkinElmer; Waltham, MA).
(§2) The data was processed using Genedata Screener^â, Version 15 (Genedata; Basel, Switzerland) to assess compound effects on viability. Compound treated wells were normalized to the median value of 14 DMSO control wells on the same 384 well plate.

ABC-1 = assay: Cell Viability Assay (CellTiter-Glo); format: cell-based; conditions: 10 μM, 5 days
Method: as §1, §2

HCC366 = assay: Cell Viability Assay (CellTiter-Glo); format: cell-based; conditions: 5 days
Method: as §1, §2

SW 620 = assay: Cell Viability Assay (CellTiter-Glo); format: cell-based; conditions: 10 μM, 5 days
Method: (§3) Cell lines were cultured in RPMI-1640, 5% fetal bovine serum, and 2 mM glutamine in a humidified incubator maintained at 37° C. with 5% CO2. Cells were assessed with a Vi-CELL Cell Viability Analyzer (Beckman Coulter; Brea, CA); viability of at least 90% was required for screening. A Multidropä Combi Reagent Dispenser (Thermo Scientific; Waltham, MA) was used to plate cells into Falcons^â 384-well, black, clear-bottom plates (Catalog No. 353962; Corning; Tewksbury, MA) using seeding densities previous determined to achieve approximately 80% confluence at the final time point of the assay. The compounds were prepared at 1000× in advance using an Echo 555 liquid handler (Labcyte; Sunnyvale, CA) and stored in −80° C. until the day of compound addition. On the following day, cells were treated with compounds at final assay concentration 1 uM and 10 uM using a Bravo Automated Liquid-Handling Platform (Agilent; Santa Clara, CA). After 5 days, 25 mL CellTiter-Glo^â reagent was added using a MultiFloä Microplate Dispenser (BioTek; Winooski, VT). Cell lysis was induced by mixing for 30 minutes on an orbital shaker; plates were then incubated at room temperature for 10 minutes to stabilize the luminescent signal. Luminescence was read by a 2104 EnVision^â Multilabel Plate Reader (PerkinElmer; Waltham, MA). […]

VHL [2] = target: T1, VHL; assay: VHL HEK-293 BRET Assay (VHL NanoBRET Target Engagement Assay); format: cell-based; conditions: HEK 293 RT VHL-NanoLuc stable cells
Method: The VHL NanoBRET™ Target Engagement Assay analyzes the apparent affinity of test compounds for VHL in cells by competitive displacement of a VHL NanoBRET™ tracer reversibly bound to a NanoLuc® VHL fusion protein stably expressed in the cells.
Test compounds were transferred to the assay plate (384 Well White Non-Binding Corning Assay Plates (Corning-3574)) using an Echo 555 Liquid Handler (Labcyte) in 2.5 nL increments and, as appropriate, intermediate stock concentrations of compounds, in order to prepare a titration series. 50 nL of control compound (10 mM; parental unlabeled VHL antagonist; see structure below) and 50 nL of DMSO (negative control) were dispensed into the appropriate control wells. DMSO was backfilled to a final volume of 50 nL as required. 50 nl per well of 1 mM VHL NanoBRET™ Tracer in DMSO (NanoBRET™ Tracer-PEG2-590 (see structure below)) was transferred into each well using an Echo 555 (ultimately yielding a final concentration of 1 uM). HEK 293 RT VHL-NanoLuc® stable cells were cultured in DMEM High Glucose with Pyruvate, 10% fetal bovine serum, 2 mg/mL of Geneticin Selective Antibiotic (50 mg/mL) and 2 mM HEPES (1 M). Cells were seeded in Opti-MEM (Life Technologies-11058-021), 1.7×10^5 cells/mL, 40 μl per well into the assay plate, centrifuged at 500 rpm for 30 seconds and incubated for 2 hours. Max Signal control wells consisted of DMSO only treated wells. Minimum Signal control wells contained of 10 uM parental unlabeled VHL antagonist (control compound—see structure below). 3× Complete Substrate plus Inhibitor Solution was prepared in Opti-MEM (consists of a 1:166 dilution of NanoBRET™ Nano-Glo® Substrate plus a 1:500 dilution of Extracellular NanoLuc® Inhibitor in Opti-MEM), and 20 ul was dispensed into each well of the 384-well plate and centrifuged at 1000 rpm for 1 minute, then incubated for 2 minutes at room temperature. Background Signal control wells were prepared without tracer for background correction steps.
Plates were read using a PerkinElmer Envision Reader (model 2104-0020) equipped with Luminescence option (Mirror: BRET2 Enh (PE Barcode 659), Emission Filter: Omega 610LP (Barcode 504), 2nd Emission Filter: Umbelliferone 460 (Barcode 207), Measurement height: 6.5 mm, Measurement time: 1 s). The raw BRET ratio values were calculated by dividing the acceptor emission value (610 nm) by the donor emission value (460 nm) for each sample. To correct for background, the BRET ratio in the absence of tracer (average of no-tracer control samples) was subtracted from the BRET ratio of each sample. Raw BRET units were converted to milliBRET units (mBU) by multiplying each raw BRET value by 1,000. The normalized NanoBRET™ signal was calculated relative to the Max Signal control wells (DMSO treated control wells) and the Minimum Signal control wells. Percentage inhibition was calculated relative to the Minimum Signal control and Maximum Signal control wells. IC50 values were derived by four parameter curve fitting using the Robust method.

KPL-4 = assay: Cell Viability Assay (CellTiter-Glo); format: cell-based; conditions: 10 μM, 5 days
Method: as §3

NCI-H2030 = assay: Cell Viability Assay (CellTiter-Glo); format: cell-based; conditions: 5 days
Method: as §1, §2

MDA-MB-436 = assay: Cell Viability Assay (CellTiter-Glo); format: cell-based; conditions: 10 μM, 5 days
Method: as §3

PANC-1 = assay: Cell Viability Assay (CellTiter-Glo); format: cell-based; conditions: 5 days
Method: as §1, §2

NCI-H23 = assay: Cell Viability Assay (CellTiter-Glo); format: cell-based; conditions: 5 days
Method: as §1, §2

NCI-H1650 = assay: Cell Viability Assay (CellTiter-Glo); format: cell-based; conditions: 10 μM, 5 days
Method: as §3

HCC1438 = assay: Cell Viability Assay (CellTiter-Glo); format: cell-based; conditions: 10 μM, 5 days
Method: as §3

CAL-120 [3] = assay: Cell Viability Assay (CellTiter-Glo); conditions: 5 days
Method: as §1, §2

SUIT-2 = assay: Cell Viability Assay (CellTiter-Glo); format: cell-based; conditions: 10 μM, 5 days
Method: as §3

KPL-1 = assay: Cell Viability Assay (CellTiter-Glo); format: cell-based; conditions: 5 days
Method: as §1, §2

MCF-7 = assay: Cell Viability Assay (CellTiter-Glo); format: cell-based; conditions: 10 μM, 5 days
Method: as §3

CAL-120 [4] = conditions: 10 µM
Method: as §1, §2

Compound	IC50 (VHL [1])	Normalized viability % DMSO (KNS-62; 10 μM)	Normalized viability % DMSO (ABC-1)	IC50 (VHL [2]; read-out: IC50)	Normalized viability % DMSO (KPL-4)	Normalized viability % DMSO (NCI-H2030; 1 μM)	Normalized viability % DMSO (NCI-H2030; 10 μM)	Normalized viability % DMSO (MDA-MB-436)	Normalized viability % DMSO (PANC-1; 1 μM)	Normalized viability % DMSO (PANC-1; 10 μM)	Normalized viability % DMSO (NCI-H23; 1 μM)	Normalized viability % DMSO (NCI-H23; 10 μM)	Normalized viability % DMSO (NCI-H1650)	Normalized viability % DMSO (HCC1438)	Normalized viability % DMSO (CAL-120 [3]; 10 μM)	Normalized viability % DMSO (KPL-1; 10 μM)	Normalized viability % DMSO (MCF-7)	further results
Cc1ncsc1-c1ccc(CNC(=O)[C@@H]2C[C@@H](O)CN2C(=O)[C@@H](n2cc(C3CC3)nn2)C(C)(C)C)cc1 [Compound 288, (2S,4R)-1-[(2S)-2-(4-cyclopropyltriazol-1-yl)-3,3-dimethyl-butanoyl]-4-hydroxy-N-[[4-(4-methylthiazol-5-yl)phenyl]methyl]pyrrolidine-2-carboxamide]	0.0132 µM	26.4 % DMSO	7.1 % DMSO	0.00794 µM	2.2 % DMSO	19.2 % DMSO	16.5 % DMSO	15.8 % DMSO	33.9 % DMSO	31.1 % DMSO	8.6 % DMSO	6.7 % DMSO	27.7 % DMSO	2.1 % DMSO	31.9 % DMSO	25.4 % DMSO	25.8 % DMSO	Normalized viability % DMSO (KNS-62; 1 μM): 44.3 % DMSO; Normalized viability % DMSO (HCC366; 1 μM): 43.0 % DMSO; Normalized viability % DMSO (HCC366; 10 μM): 22.5 % DMSO; Normalized viability % DMSO (SW 620): 28.2 % DMSO; Normalized viability % DMSO (CAL-120 [3]; 1 μM): 31.1 % DMSO; Normalized viability % DMSO (SUIT-2): 30.2 % DMSO; Normalized viability % DMSO (KPL-1; 1 μM): 40.5 % DMSO
CC(C)(NC(=O)[C@@H]1C[C@@H](O)CN1C(=O)[C@@H](n1cc(C2CC2)nn1)C(C)(C)C)C(=O)Nc1ccccc1 [Compound 480, (2S,4R)-N-(2-anilino-1,1-dimethyl-2-oxo-ethyl)-1-[(2S)-2-(4-cyclopropyltriazol-1-yl)-3,3-dimethyl-butanoyl]-4-hydroxy-pyrrolidine-2-carboxamide]	6.66 µM	8.7 % DMSO	38.1 % DMSO	0.135 µM	38.4 % DMSO	32.4 % DMSO	5.6 % DMSO	23.6 % DMSO	38.1 % DMSO	22.7 % DMSO	37.0 % DMSO	8.2 % DMSO	12.6 % DMSO	11.3 % DMSO	15.5 % DMSO	47.9 % DMSO	13.7 % DMSO	–
(2S,4R)-N-[2-(4-bromoindol-1-yl)ethyl]-1-[(2S)-2-(4-cyclopropyltriazol-1-yl)-3,3-dimethyl-butanoyl]-4-hydroxy-pyrrolidine-2-carboxamide [Compound 469]	–	–	–	0.21 µM	–	–	–	–	–	–	–	–	–	–	–	–	–	IC50 (VHL [2]; IC50 values measured in the presence of digitonin, read-out: IC50 + Digi (μM)*): 0.435 µM; Normalized viability % DMSO (CAL-120 [4]): 62.6 % DMSO
